According to patent US20240174695A1, “Spirocycle Containing Bicyclic Heteroaryl Compounds” (Protego Biopharma, Inc., priority 2022, published 2024):

System: Recombinant amyloidogenic full length light chain protein WIL-FL T46L
Assay: Differential Scanning Fluorimetry Assay (thermal shift assay); note: test concentration or dose not given here
Assay type: binding
Settings: Thermal Shift Protein Stability Kit (Biotium), 96-well plates; protein and compounds incubated at RT for 30 min before adding the dye
Protocol: Differential Scanning Fluorimetry Assay
The stabilization effects the compounds have on the immunoglobulin light chain protein were quantitively measured using a thermal shift assay. Recombinant amyloidogenic full length light chain protein WIL-FL T46L was produced in E. coli, purified, and used in the assay. The Thermal Shift Protein Stability Kit from Biotium was used and the assay was done in 96-well plates following the manufacturer's instructions. The protein and compounds were incubated at RT for 30 min before adding the dye and subjected to the thermal shift assay. The thermal stability (Tm) of each sample was then determined using standard curve fitting methods and compared to vehicle. Data are expressed as temperature shift: [Tm]compound−[Tm]vehicle.
Results • 0-0.5° C.=* • >0.5-1° C.=** • >1-1.5° C.=*** • >1.5-2.5° C.=**** • >2.5° C.=*****

SMILES | DSF temperature shift: [Tm]compound−[Tm]vehicle
Cc1cc(OC[C@H](C)c2ccccc2)cn2nc(C(O)CN3CC4(CN(c5cccc(C(=O)O)n5)C4)NC3=O)nc12 (stereo partly shown) [Compound 86] | **** (>1.5-2.5° C.=****)
Cc1cc(OC[C@H](C)c2ccccc2)cn2nc(C(O)CN3CC4(CN(c5nccc(C(=O)O)n5)C4)NC3=O)nc12 (stereo partly shown) [Compound 87] | ***** (>2.5° C.=*****)
Cc1cc(OC[C@H](C)c2ccccc2)cn2nc(C(O)CN3CC4(CN(c5nccn6cnnc56)C4)NC3=O)nc12 (stereo partly shown) [Compound 88] | ***** (>2.5° C.=*****)
Cc1c(O)ncnc1N1CC2(CN(CC(O)c3nc4c(C)cc(OC[C@H](C)c5ccccc5)cn4n3)C(=O)N2)C1 (stereo partly shown) [Compound 89] | ***** (>2.5° C.=*****)
Cc1cc(OC[C@H](C)c2ccccc2)cn2nc(CCN3CC4(CCN(C(=O)C5(c6ccccn6)CC5)CC4)NC3=O)nc12 [Compound 90] | *** (>1-1.5° C.=***)
Cc1cc(OC[C@H](C)c2ccccc2)cn2nc(CCN3CC4(CCN(C(=O)c5ncccn5)CC4)NC3=O)nc12 [Compound 91] | **** (>1.5-2.5° C.=****)
Cc1cc(OC[C@H](C)c2ccccc2)cn2nc(CCN3CC4(CCN(C(=O)c5ncnn5C)CC4)NC3=O)nc12 [Compound 92] | **** (>1.5-2.5° C.=****)
Cc1cc(OC[C@H](C)c2ccccc2)cn2nc(CCN3CC4(CCN(C(=O)c5nncn5C)CC4)NC3=O)nc12 [Compound 93] | **** (>1.5-2.5° C.=****)
Cc1nccnc1N1CCC2(CC1)CN(CCc1nc3c(C)cc(OC[C@H](C)c4ccccc4)cn3n1)C(=O)N2 [Compound 94] | **** (>1.5-2.5° C.=****)
Cc1cc(OC[C@H](C)c2ccccc2)cn2nc(CCN3CC4(CCN(c5cc(C(F)(F)F)ccn5)CC4)NC3=O)nc12 [Compound 95] | *** (>1-1.5° C.=***)
Cc1cc(OC[C@H](C)c2ccccc2)cn2nc(CCN3CC4(CCN(c5ccnc(C(F)(F)F)c5)CC4)NC3=O)nc12 [Compound 96] | *** (>1-1.5° C.=***)
Cc1cc(N2CCC3(CC2)CN(CCc2nc4c(C)cc(OC[C@H](C)c5ccccc5)cn4n2)C(=O)N3)ccn1 [Compound 98] | ***** (>2.5° C.=*****)
Cc1cc(OC[C@H](C)c2ccccc2)cn2nc(CCN3CC4(CCN(c5cc(Cl)nc(S(C)(=O)=O)n5)CC4)NC3=O)nc12 [Compound 99] | **** (>1.5-2.5° C.=****)
Cc1cc(OC[C@H](C)c2ccccc2)cn2nc(CCN3CC4(CCN(c5ccc(C#N)cn5)CC4)NC3=O)nc12 [Compound 100] | **** (>1.5-2.5° C.=****)
Cc1nc(F)ccc1N1CCC2(CC1)CN(CCc1nc3c(C)cc(OC[C@H](C)c4ccccc4)cn3n1)C(=O)N2 [Compound 101] | ** (>0.5-1° C.=**)
Cc1cc(OC[C@H](C)c2ccccc2)cn2nc(CCN3CC4(CCN(c5cccc(Cl)n5)CC4)NC3=O)nc12 [Compound 102] | *** (>1-1.5° C.=***)
Cc1cc(OC[C@H](C)c2ccccc2)cn2nc(CCN3CC4(CCN(c5cccnc5C(F)(F)F)CC4)NC3=O)nc12 [Compound 104] | ** (>0.5-1° C.=**)
Cc1cc(OC[C@H](C)c2ccccc2)cn2nc(CCN3CC4(CCN(c5ccnc(O)c5)CC4)NC3=O)nc12 [Compound 105] | ***** (>2.5° C.=*****)
Cc1cc(OC[C@H](C)c2ccccc2)cn2nc(CCN3CC4(CCN(c5ccnc(S(C)(=O)=O)n5)CC4)NC3=O)nc12 [Compound 106] | ***** (>2.5° C.=*****)
Cc1ncc(N2CCC3(CC2)CN(CCc2nc4c(C)cc(OC[C@H](C)c5ccccc5)cn4n2)C(=O)N3)s1 [Compound 107] | **** (>1.5-2.5° C.=****)
Cc1noc(N2CCC3(CC2)CN(CCc2nc4c(C)cc(OC[C@H](C)c5ccccc5)cn4n2)C(=O)N3)n1 [Compound 108] | ***** (>2.5° C.=*****)
Cc1cc(OC[C@H](C)c2ccccc2)cn2nc(CCN3CC4(CCN(c5nc(F)cc(F)n5)CC4)NC3=O)nc12 [Compound 109] | **** (>1.5-2.5° C.=****)
Cc1cc(OC[C@H](C)c2ccccc2)cn2nc(CCN3CC4(CCN(c5cc(F)nc(F)n5)CC4)NC3=O)nc12 [Compound 110] | **** (>1.5-2.5° C.=****)
Cc1cc(OC[C@H](C)c2ccccc2)cn2nc(CCN3CC4(CCN(c5ccnc(F)n5)CC4)NC3=O)nc12 [Compound 111] | **** (>1.5-2.5° C.=****)
Cc1cc(OC[C@H](C)c2ccccc2)cn2nc(CCN3CC4(CCN(c5ncc(F)cn5)C4)NC3=O)nc12 (stereo partly shown) [Compound 112] | **** (>1.5-2.5° C.=****)

SMILES | DSF temperature shift: [Tm]compound−[Tm]vehicle
Cc1cc(OC[C@H](C)c2ccccc2)cn2nc(CCN3CC4(CCN(c5ncc(F)cn5)CC4)NC3=O)nc12 [Compound 113] | ***** (>2.5° C.=*****)
Cc1cc(OC[C@H](C)c2ccccc2)cn2nc(CCN3CC4(CCN(c5ncc(F)cn5)CC4)OC3=O)nc12 [Compound 114] | *** (>1-1.5° C.=***)
Cc1cc(OC[C@H](C)c2ccccc2)cn2nc(CCN3CC4(CCN(c5ncccn5)CC4)NC3=O)nc12 [Compound 115] | **** (>1.5-2.5° C.=****)
Cc1cc(OC[C@H](C)c2ccccc2)cn2nc(CCN3CC4(CCN(c5nccn6cnnc56)CC4)OC3=O)nc12 [Compound 116, (R)-8-([1,2,4]triazolo[4,3-a]pyrazin-8-yl)-3-(2-(8-methyl-6-(2-phenylpropoxy)-[1,2,4]triazolo[1,5-a]pyridin-2-yl)ethyl)-1-oxa-3,8-diazaspiro[4.5]decan-2-one] | **** (>1.5-2.5° C.=****)
Cc1cc(OC[C@H](C)c2ccccc2)cn2nc(CCN3CC4(CCN(c5nccnc5F)CC4)NC3=O)nc12 [Compound 117] | **** (>1.5-2.5° C.=****)
Cc1ncnc(N2CCC3(CC2)CN(CCc2nc4c(C)cc(OC[C@H](C)c5ccccc5)cn4n2)C(=O)N3)c1C [Compound 118] | **** (>1.5-2.5° C.=****)
Cc1cc(OC[C@H](C)c2ccccc2)cn2nc(CCN3CC4(CCN(c5ncns5)CC4)NC3=O)nc12 [Compound 119] | **** (>1.5-2.5° C.=****)
Cc1cc(OC[C@H](C)c2ccccc2)cn2nc(CCN3CC4(CCN(c5ncn(C)n5)CC4)NC3=O)nc12 [Compound 120] | **** (>1.5-2.5° C.=****)
Cc1ccc(N2CCC3(CC2)CN(CCc2nc4c(C)cc(OC[C@H](C)c5ccccc5)cn4n2)C(=O)N3)nn1 [Compound 121] | **** (>1.5-2.5° C.=****)
Cc1nnc(N2CCC3(CC2)CN(CCc2nc4c(C)cc(OC[C@H](C)c5ccccc5)cn4n2)C(=O)N3)s1 [Compound 122] | **** (>1.5-2.5° C.=****)
Cc1nc(N2CCC3(CC2)CN(CCc2nc4c(C)cc(OC[C@H](C)c5ccccc5)cn4n2)C(=O)N3)no1 [Compound 123] | **** (>1.5-2.5° C.=****)
Cc1nc(N2CCC3(CC2)CN(CCc2nc4c(C)cc(OC[C@H](C)c5ccccc5)cn4n2)C(=O)N3)ns1 [Compound 124] | **** (>1.5-2.5° C.=****)
Cc1cc(OC[C@H](C)c2ccccc2)cn2nc(CCN3CC4(CCN(S(=O)(=O)c5cccnc5)CC4)NC3=O)nc12 [Compound 125] | **** (>1.5-2.5° C.=****)
Cc1cc(OC[C@H](C)c2ccccc2)cn2nc(CCN3CC4(CN(c5cccc(C(=O)O)n5)C4)NC3=O)nc12 [Compound 126] | *** (>1-1.5° C.=***)
Cc1cc(OC[C@H](C)c2ccccc2)cn2nc(CCN3CC4(CN(c5ncc(F)cn5)C4)NC3=O)nc12 [Compound 127] | ***** (>2.5° C.=*****)
Cc1ccc(N2CCC3(CC2)CN(CC(O)c2nc4c(C)cc(OCC5(c6ccccc6)CC5)cn4n2)C(=O)N3)cn1 (stereo not shown) [Compound 128] | **** (>1.5-2.5° C.=****)
Cc1cnc(N2CCC3(CC2)CN(CCc2nc4c(C)cc(OC[C@H](C)c5ccccc5)cn4n2)C(=O)N3)s1 [Compound 129] | ***** (>2.5° C.=*****)
CCOC(=O)c1ccc(N2CCC3(CC2)CN(CC(O)c2nc4c(C)cc(OCC5(c6ccccc6)CC5)cn4n2)C(=O)N3)cn1 (stereo not shown) [Compound 130] | *** (>1-1.5° C.=***)
CNC(=O)c1cc(N2CCC3(CC2)CC(=O)N(CC(C)(O)c2nc4c(C)cc(OC[C@H](C)c5ccccc5)cn4n2)C3)ccn1 (stereo partly shown) [Compound 131] | *** (>1-1.5° C.=***)
CNC(=O)c1cc(N2CCC3(CC2)CN(CC(C)(O)c2nc4c(C)cc(OC[C@H](C)c5ccccc5)cn4n2)C(=O)N3)ccn1 (stereo partly shown) [Compound 132] | **** (>1.5-2.5° C.=****)
CNC(=O)c1cc(N2CCC3(CC2)CN(CC(O)c2nc4c(C)cc(OCC5(c6ccccc6)CC5)cn4n2)C(=O)N3)ccn1 (stereo not shown) [Compound 133] | ***** (>2.5° C.=*****)
CNC(=O)c1cc(N2CCC3(CC2)CN(Cc2nc4c(C)cc(OC[C@H](C)c5ccccc5)cn4n2)C(=O)N3)ccn1 [Compound 134] | **** (>1.5-2.5° C.=****)
COC(=O)c1cccc(N2CC3(CN(CCc4nc5c(C)cc(OC[C@H](C)c6ccccc6)cn5n4)C(=O)N3)C2)n1 [Compound 135] | ***** (>2.5° C.=*****)
COC(=O)c1cnc(N2CCC3(CC2)CN(CC(O)c2nc4c(C)cc(OCC5(c6ccccc6)CC5)cn4n2)C(=O)N3)c2nccn12 (stereo not shown) [Compound 136] | ***** (>2.5° C.=*****)
